Measured values as given in the NIST ThermoML archive (doi:10.1016/j.tca.2005.06.043).
Numbers after ± are expanded uncertainties.

Key:
[1] = Calculated from knudsen effusion weight loss
[2] = molar enthalpy of vaporization or sublimation; conditions: 303 K; Crystal 2; Static calorimetry

| vapor or sublimation pressure ([1]; 318.02 K, Crystal) [kPa] | vapor or sublimation pressure ([1]; 322.7 K, Crystal) [kPa] | vapor or sublimation pressure ([1]; 322.99 K, Crystal) [kPa] | vapor or sublimation pressure ([1]; 327.9 K, Crystal) [kPa] | vapor or sublimation pressure ([1]; 332.6 K, Crystal) [kPa] | vapor or sublimation pressure ([1]; 288.36 K, Crystal 2) [kPa] | vapor or sublimation pressure ([1]; 293.31 K, Crystal 2) [kPa] | vapor or sublimation pressure ([1]; 298.28 K, Crystal 2) [kPa] | vapor or sublimation pressure ([1]; 303.22 K, Crystal 2) [kPa] | vapor or sublimation pressure ([1]; 308.19 K, Crystal 2) [kPa] | vapor or sublimation pressure ([1]; 313.16 K, Crystal 1) [kPa] | vapor or sublimation pressure ([1]; 314.21 K, Crystal 1) [kPa] | vapor or sublimation pressure ([1]; 314.65 K, Crystal 1) [kPa] | vapor or sublimation pressure ([1]; 315.63 K, Crystal 1) [kPa] | vapor or sublimation pressure ([1]; 316.65 K, Crystal 1) [kPa] | vapor or sublimation pressure ([1]; 318.12 K, Crystal 1) [kPa] | vapor or sublimation pressure ([1]; 320.59 K, Crystal 1) [kPa] | vapor or sublimation pressure ([1]; 323.03 K, Crystal 1) [kPa] | molar enthalpy [2] [kcal/mol] | SMILES |
| --- | --- | --- | --- | --- | --- | --- | --- | --- | --- | --- | --- | --- | --- | --- | --- | --- | --- | --- | --- |
| 0.001022 ± 8.9e-05 | 0.001693 ± 0.00016 | 0.001744 ± 0.00016 | 0.00289 ± 0.00029 | 0.004567 ± 0.00049 |  |  |  |  |  |  |  |  |  |  |  |  |  |  | O=C(O)c1ccccc1 [benzoic acid] |
|  |  |  |  |  | 0.001603 ± 0.00015 | 0.002687 ± 0.00027 | 0.004279 ± 0.00045 | 0.006896 ± 0.00077 | 0.0111 ± 0.0013 | 0.0169 ± 0.0021 | 0.01766 ± 0.0022 | 0.01847 ± 0.0023 | 0.01952 ± 0.0025 | 0.0215 ± 0.0028 | 0.02411 ± 0.0032 | 0.02925 ± 0.0039 | 0.03472 ± 0.0048 | 17.15 ± 0.151 | BrC12CC3CC(CC(C3)C1)C2 [1-bromotricyclo[3.3.1.1(3,7)]decane] |
